Measurements: US20240199546A1, “INHIBITORS OF SOLUTE CARRIER FAMILY 6A MEMBER 19 (SLC6A19) AND METHODS OF USE THEREOF” (Maze Therapeutics, Inc., priority 2022, published 2024)
pIC50: −log10 of the molar value.

How the values were obtained:
[1] = target: T1, human SLC6A19 and TMEM27 (Homo sapiens, UniProt Q695T7); assay: Radiolabelled (3H) leucine uptake in CHO cells with doxycycline-inducible expression of human SLC6A19 and TMEM27 (Example B-1); assay type: cell-based; settings: CHO cells with doxycycline-inducible expression of human SLC6A19 and TMEM27, read-out: SLC6A19_Radioligand Uptake Assay IC50
T1 construct: expressed in transfected cells
T1 sequence (Q695T7 1-634): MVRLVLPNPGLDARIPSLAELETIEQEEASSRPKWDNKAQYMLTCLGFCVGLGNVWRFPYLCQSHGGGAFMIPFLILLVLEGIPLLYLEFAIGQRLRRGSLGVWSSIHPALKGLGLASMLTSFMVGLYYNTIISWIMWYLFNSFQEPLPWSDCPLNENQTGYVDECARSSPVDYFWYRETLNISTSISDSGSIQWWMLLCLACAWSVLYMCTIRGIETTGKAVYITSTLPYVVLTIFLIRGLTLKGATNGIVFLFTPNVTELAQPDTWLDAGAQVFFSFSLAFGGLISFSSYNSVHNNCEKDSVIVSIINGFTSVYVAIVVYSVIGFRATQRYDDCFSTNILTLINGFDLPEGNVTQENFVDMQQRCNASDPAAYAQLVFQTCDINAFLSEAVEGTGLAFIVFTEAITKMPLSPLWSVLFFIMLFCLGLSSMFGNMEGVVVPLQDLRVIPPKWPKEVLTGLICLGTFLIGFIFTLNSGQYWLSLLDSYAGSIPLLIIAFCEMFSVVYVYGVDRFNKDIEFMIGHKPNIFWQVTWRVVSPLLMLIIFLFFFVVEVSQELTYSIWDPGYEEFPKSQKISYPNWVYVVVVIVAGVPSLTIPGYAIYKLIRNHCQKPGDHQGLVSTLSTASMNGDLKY
T1 sequence (Q9HBJ8 15-222 partner): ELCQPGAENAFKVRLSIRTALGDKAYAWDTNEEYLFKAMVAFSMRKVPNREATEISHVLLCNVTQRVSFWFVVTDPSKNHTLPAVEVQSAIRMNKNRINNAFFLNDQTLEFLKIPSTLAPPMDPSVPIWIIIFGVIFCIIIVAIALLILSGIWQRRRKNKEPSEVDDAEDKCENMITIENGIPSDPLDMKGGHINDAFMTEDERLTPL
Procedure, shortened: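 CHO cells were induced with doxycycline for 18 h at 37 °C, washed in HBSS, then exposed to compounds for 1 h: 8-point, 3-fold dilutions in duplicate, 0.5% DMSO final. Uptake measured by scintillation counting after 2 h shaking. Activity normalized with positive control as 0% and DMSO as 100%.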

[2] = target: T1, human SLC6A19 and TMEM27; assay: 13C6,15N-isoleucine uptake in CHO cells with doxycycline-inducible expression of human SLC6A19 and TMEM27, RapidFire mass spectrometry (Example B-2); assay type: cell-based; settings: read-out: SLC6A19_RapidFire Uptake Assay IC50
Procedure, shortened: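 CHO cells induced overnight with doxycycline to express human SLC6A19 plus TMEM27; 20 min preincubation with compound (10-point 2-fold series, duplicate) at 37 °C in HEPES buffer pH 7.2, then 20 min with 13C6,15N-isoleucine. Intracellular label quantified by RapidFire MS against 13C-leucine standard; positive control defined 100% inhibition.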

| pIC50 [1] | pIC50 [2] | Compound |
| --- | --- | --- |
| 6.56 | 6.86 | CC1(C(=O)NCc2cc3cc(Cl)c(OCc4ccns4)cc3[nH]2)CC1 [Compound 322, N-((5-chloro-6-(isothiazol-5-ylmethoxy)-1H-indol-2-yl)methyl)-1-methylcyclopropane-1-carboxamide] |
| 5.74 | 6.27 | CC1(C(=O)NCc2cc3cc(Cl)c(OCc4ncc(Cl)s4)cc3[nH]2)CC1 [Compound 323, N-((5-chloro-6-((5-chlorothiazol-2-yl)methoxy)-1H-indol-2-yl)methyl)-1-methylcyclopropane-1-carboxamide] |
| 5.95 | 6.32 | CC1(C(=O)NCc2cc3cc(Cl)c(OCc4csc(Cl)c4)cc3[nH]2)CC1 [Compound 324, N-((5-chloro-6-((5-chlorothiophen-3-yl)methoxy)-1H-indol-2-yl)methyl)-1-methylcyclopropane-1-carboxamide] |
| 6.71 | 6.90 | CC1(C(=O)NCc2cc3cc(Cl)c(OCc4ccno4)cc3[nH]2)CC1 [Compound 326, N-((5-chloro-6-(isoxazol-5-ylmethoxy)-1H-indol-2-yl)methyl)-1-methylcyclopropane-1-carboxamide] |
| 6.65 | 7.05 | CC1(C(=O)NCc2cc3cc(F)c(OCc4cccc(F)n4)cc3[nH]2)CC1 [Compound 327, N-((5-fluoro-6-((6-fluoropyridin-2-yl)methoxy)-1H-indol-2-yl)methyl)-1-methylcyclopropane-1-carboxamide] |
| 6.78 | 6.91 | CC1(C(=O)NCc2cc3cc(F)c(OCc4ccccn4)cc3[nH]2)CC1 [Compound 330, N-((5-fluoro-6-(pyridin-2-ylmethoxy)-1H-indol-2-yl)methyl)-1-methylcyclopropane-1-carboxamide] |
| 6.57 | 6.73 | CC1(C(=O)NCc2cc3cc(F)c(OCc4cccnc4F)cc3[nH]2)CC1 [Compound 332, N-((5-fluoro-6-((2-fluoropyridin-3-yl)methoxy)-1H-indol-2-yl)methyl)-1-methylcyclopropane-1-carboxamide] |
| 6.56 | 6.71 | CC1(C(=O)NCc2cc3cc(C4CC4)c(OCc4cscn4)cc3[nH]2)CC1 [Compound 341, N-((5-cyclopropyl-6-(thiazol-4-ylmethoxy)-1H-indol-2-yl)methyl)-1-methylcyclopropane-1-carboxamide] |
| 6.59 | 6.67 | CC1(C(=O)NCc2cc3cc(C4CC4)c(OCc4ccon4)cc3[nH]2)CC1 [Compound 342, N-((5-cyclopropyl-6-(isoxazol-3-ylmethoxy)-1H-indol-2-yl)methyl)-1-methylcyclopropane-1-carboxamide] |
| 5.50 | 5.61 | Cc1cc(COc2c(Cl)cc3cc(CNC(=O)C4(C)CC4)[nH]c3c2Cl)no1 [Compound 343, N-((5,7-dichloro-6-((5-methylisoxazol-3-yl)methoxy)-1H-indol-2-yl)methyl)-1-methylcyclopropane-1-carboxamide] |
| 5.41 | < 4.30 | CC1(C(=O)NCc2cc3cc(Cl)c(OCc4cscn4)c(Cl)c3[nH]2)CC1 [Compound 344, N-((5,7-dichloro-6-(thiazol-4-ylmethoxy)-1H-indol-2-yl)methyl)-1-methylcyclopropane-1-carboxamide] |
| < 5.02 | < 4.30 | CC1(C(=O)NCc2cc3cc(Cl)c(OCc4ccon4)c(Cl)c3[nH]2)CC1 [Compound 346, N-((5,7-dichloro-6-(isoxazol-3-ylmethoxy)-1H-indol-2-yl)methyl)-1-methylcyclopropane-1-carboxamide] |

The remaining lines, values behind:

| Compound | pIC50 [1] | pIC50 [2] |
| --- | --- | --- |
| CC(=O)NCc1cc2cc(F)c(OCc3ccno3)cc2[nH]1 [Compound 220, N-((5-fluoro-6-(isoxazol-5-ylmethoxy)-1H-indol-2-yl)methyl)acetamide] | 5.81 | 5.46 |
| CC(=O)NCc1cc2cc(Cl)c(OCc3cnn(C)n3)cc2[nH]1 [Compound 221, N-((5-chloro-6-((2-methyl-2H-1,2,3-triazol-4-yl)methoxy)-1H-indol-2-yl)methyl)acetamide] | 6.54 | 6.33 |
| CC(=O)NCc1cc2cc(F)c(OCc3cnn(C)n3)cc2[nH]1 [Compound 222, N-((5-fluoro-6-((2-methyl-2H-1,2,3-triazol-4-yl)methoxy)-1H-indol-2-yl)methyl)acetamide] | 5.50 | 5.18 |
| CC(=O)NCc1cc2cc(F)c(OCc3cc(C)no3)cc2[nH]1 [Compound 223, N-((5-fluoro-6-((3-methylisoxazol-5-yl)methoxy)-1H-indol-2-yl)methyl)acetamide] | 6.69 | 6.10 |
| CC(=O)NCc1cc2cc(Cl)c(OCc3cccc(F)n3)cc2[nH]1 [Compound 225, N-((5-chloro-6-((6-fluoropyridin-2-yl)methoxy)-1H-indol-2-yl)methyl)acetamide] | 6.81 | 7.09 |
| CC(=O)NCc1cc2cc(F)c(OCc3cccc(F)n3)cc2[nH]1 [Compound 226, N-((5-fluoro-6-((6-fluoropyridin-2-yl)methoxy)-1H-indol-2-yl)methyl)acetamide] | 5.95 | 6.02 |
| CC(=O)NCc1cc2cc(Cl)c(NCc3ccon3)cc2[nH]1 [Compound 227, N-((5-chloro-6-((isoxazol-3-ylmethyl)amino)-1H-indol-2-yl)methyl)acetamide] | 6.50 | 6.31 |
| CC(=O)NCc1cc2cc(F)c(NCc3ccon3)cc2[nH]1 [Compound 228, N-((5-fluoro-6-((isoxazol-3-ylmethyl)amino)-1H-indol-2-yl)methyl)acetamide] | 5.50 | 4.95 |
| CC(=O)NCc1cc2cc(Cl)c(NCc3cscn3)cc2[nH]1 [Compound 229, N-((5-chloro-6-((thiazol-4-ylmethyl)amino)-1H-indol-2-yl)methyl)acetamide] | 6.80 | 6.69 |
| O=C(NCc1cc2cc(F)c(OCc3cscn3)cc2[nH]1)C1(F)CC1 [Compound 230, 1-fluoro-N-((5-fluoro-6-(thiazol-4-ylmethoxy)-1H-indol-2-yl)methyl)cyclopropane-1-carboxamide] | 7.16 | 7.64 |
| O=C(NCc1cc2cc(Cl)c(OCc3cscn3)cc2[nH]1)C1(F)CC1 [Compound 231, N-((5-chloro-6-(thiazol-4-ylmethoxy)-1H-indol-2-yl)methyl)-1-fluorocyclopropane-1-carboxamide] | 6.86 | 7.31 |
| O=C(NCc1cc2cc(Cl)c(OCc3ccon3)cc2[nH]1)C1(F)CC1 [Compound 232, N-((5-chloro-6-(isoxazol-3-ylmethoxy)-1H-indol-2-yl)methyl)-1-fluorocyclopropane-1-carboxamide] | 7.00 | 7.39 |
| O=C(NCc1cc2cc(F)c(OCc3ccon3)cc2[nH]1)C1(F)CC1 [Compound 233, 1-fluoro-N-((5-fluoro-6-(isoxazol-3-ylmethoxy)-1H-indol-2-yl)methyl)cyclopropane-1-carboxamide] | 6.95 | 7.24 |
| CC(=O)NCc1cc2cc(C)c(OCc3cscn3)cc2[nH]1 [Compound 234, N-((5-methyl-6-(thiazol-4-ylmethoxy)-1H-indol-2-yl)methyl)acetamide] | 6.44 | 6.34 |
| CC(=O)NCc1cc2cc(C)c(OCc3ccon3)cc2[nH]1 [Compound 235, N-((6-(isoxazol-3-ylmethoxy)-5-methyl-1H-indol-2-yl)methyl)acetamide] | 6.55 | 6.28 |
| CC(=O)NCc1cc2cc(F)c(OCc3coc(C)n3)cc2[nH]1 [Compound 236, N-((5-fluoro-6-((2-methyloxazol-4-yl)methoxy)-1H-indol-2-yl)methyl)acetamide] | 5.52 | < 4.71 |
| CC1(C(=O)NCc2cc3cc(Cl)c(OCc4ccc(Cl)s4)cc3[nH]2)CC1 [Compound 320, N-((5-chloro-6-((5-chlorothiophen-2-yl)methoxy)-1H-indol-2-yl)methyl)-1-methylcyclopropane-1-carboxamide] | 5.97 | 6.32 |
| CC1(C(=O)NCc2cc3cc(Cl)c(OCc4ccsc4Cl)cc3[nH]2)CC1 [Compound 321, N-((5-chloro-6-((2-chlorothiophen-3-yl)methoxy)-1H-indol-2-yl)methyl)-1-methylcyclopropane-1-carboxamide] | 6.05 | 6.42 |
